Laboratory results: patent US20170261494A1, “Disposable Single Cell Array for Personalized Diagnostics” (Northeastern University, priority 2016, published 2017)
Structures can show the parent of a compound that is named as a salt.

What was measured:
[1] = tested on: HCT-116, HCT-116-siRNA-topo1 and HCT-116-siRNA-topo2 cells; assay: Single-cell array immunoblotting for topo1, topo2 and γH2AX in halo and nucleus; assay type: cell-based; details: alkaline solution, primary antibodies to topo1, topo2, γH2AX, fluorescent secondary antibodies
Protocol: (§1) Identification of topoisomerase complexes with DNA and histones at single-cell level can provide mechanistic confirmation on drug- or radiation-DNA interaction. Three colorectal cancer cell lines, HCT-116 (normal topo1/topo2 expression), HCT-116-siRNA-topo1 (low topo1 expression) and HCT-116-siRNA-topo2 (low topo2 expression), are treated with two drugs (one targets topo1 and the other targets topo2), followed by immunoblotting with the array of invention. First, cells are treated with CPT-11 (topo1 drug), and processed for use with the invention using SYBR SAFE dye to reflect the extent of DNA damage. […] In a second experiment, CPT-11 treated cells are subjected to an alkaline solution to allow damaged DNA diffusion (without fluorescence staining), and then incubated with three primary antibodies (topo1, topo2 and γH2AX) for 10 min. After washing to remove excess antibodies, three fluorescent secondary antibodies against topo1, topo2 and γ-H2AX are added. After washing away excess antibodies, the three proteins are detected with fluorescence imaging. […] Parallel studies with VP-16, which targets topo2 enzyme is performed. […] Similar experiments are performed to test X-ray irradiated cells. The results are compared to provide information on drug actions.

[2] = tested on: A172 cells; assay: Paper-based single-cell array halo assay of DNA damage (NDF); set-up: species or system human; details: drug concentration 50 μM (0 at 0 μM); FIG. 6E/6F
[3] = tested on: MCF7 cells; assay: as above; details: drug concentration 50 μM (0 at 0 μM); FIG. 6E/6F
Protocol: (§2) Fibroblast cells, human glioblastoma cells (A172) and breast cancer cells (MCF7) were cultured in standard conditions (5% CO2 in air at 37° C.) in RPMI-1640 medium supplemented with 10% (v/v) fetal bovine serum and 1% (v/v) penicillin/streptomycin. For obtaining individual cells, cells were trypsinized.
(§3) After exposure to anticancer treatment (radiation or chemotherapy drug), cells were seeded on the cell array precursor at a density of 1×10^6 cells/ml, forming ordered single-cell arrays (FIG. 1A). The quality of single cell arrays was primarily determined by surface roughness of the substrate (FIGS. 3E-H). As the paper surface became smoother, more cells were attached, and the array became more ordered. The attachment probability was derived as the ratio between adsorbed cells and the number of micro-patches. The probability of single cell array increased as the number of layers increased from 25±3.1%, 70±3.5%, to 87±6.4% for 1, 3 and 5 layers of ink, respectively. Five layers of ink provided a high quality substrate for single cell array formation, making this method ideal for paper-based single-cell halo assay.
(§4) After incubating cells on the paper for 30 min, unattached cells were rinsed away with PBS, followed by addition of 1.5 ml 1% low melting point (LGT)-agarose on paper. The substrate was kept at room temperature for 10 min to allow gel solidification. Then, cells on the paper were immersed in 0.3 M NaOH for 30 min at room temperature, and stained with diluted (×10000) SYBR green I solution for 15 min. After removing unbound dye, cells were imaged using an Olympus IX81 fluorescent microscope and the acquired images were analyzed with in-house image analysis software to quantify DNA damage. Each data point was averaged from at least 50 individual cells.
(§5) An in-house MATLAB image processing software was developed for quantifying DNA damage. In order to isolate individual cells, images were thresholded using Otsu's method into 4 levels. The first level was considered background; the second and third levels were combined to label halo; and the fourth level was used to label the nucleus. All non-background levels were combined to form a binary image of a cell. The eccentricity of each cell object was measured on a scale of 0 to 1, where a score of 0 corresponded to a perfectly circular object and a score of 1 corresponded to a line. Cell objects with an eccentricity>0.5 were removed from the image on the assumption that they contain overlapping cells (due to deposition of un-patterned cells). FIGS. 4A-F show the process of automatic analysis of the single-cell array using MATLAB software. The original image was transferred from a color image to a grayscale image (FIG. 4A). […] DNA damage measurements were calculated based on the halos and nuclei labeled for each cell. […]

[4] = tested on: fibroblast cells; assay: as above; details: drug concentration 50 μM (0 at 0 μM); FIG. 6E/6F
Protocol: as §2, §3, §4, §5

[5] = tested on: HCT-116, HCT-116-siRNA-topo1 and HCT-116-siRNA-topo2 cells; assay: Single-cell array halo assay in colorectal cancer cell lines with normal or low topo1/topo2 expression; assay type: cell-based; details: SYBR SAFE dye; compared among HCT-116, HCT-116-siRNA-topo1 and HCT-116-siRNA-topo2
Protocol: as §1

| Structure (SMILES) | Protein found in halos (topoisomerase trapped in damaged DNA) [1] | NDF of A172 cells [2] | NDF of MCF7 cells [3] | NDF of fibroblast cells [4] | Halo size (extent of DNA damage) [5] |
| --- | --- | --- | --- | --- | --- |
| COc1cc([C@@H]2c3cc4c(cc3[C@@H](O[C@@H]3O[C@@H]5CO[C@@H](C)O[C@H]5[C@H](O)[C@H]3O)[C@H]3COC(=O)[C@H]23)OCO4)cc(OC)c1O [VP-16] | Only topo2 enzymes are trapped in damaged DNAs and diffused in halos |  |  |  |  |
| COc1cccc2c1C(=O)c1c(O)c3c(c(O)c1C2=O)C[C@@](O)(C(=O)CO)C[C@@H]3O[C@H]1C[C@H](N)[C@H](O)[C@H](C)O1 [doxorubicin, doxorubicin hydrochloride] |  | 3.91 | 3.95 | 4.63 |  |
| CCc1c2c(nc3ccc(OC(=O)N4CCC(N5CCCCC5)CC4)cc13)-c1cc3c(c(=O)n1C2)COC(=O)[C@]3(O)CC [irinotecan, irinotecan hydrochloride] | Only topo1 is found in halos |  | 4.05 | 4.34 | smallest in HCT-116-siRNA-topo1 cells |
